# Measured values published in ChEMBL document CHEMBL4732126, “Design, synthesis, and biodistribution studies of new analogues of marine alkaloids: Potent in vitro and in vivo fungicidal agents against Candida spp” (Eur J Med Chem, 2021).
# The source made the active and inactive calls. The calls are words filed in the database; no cut-off is given here.
# What was measured:
# Candida albicans [1] = assay: Antifungal activity against Candida albicans ATCC 10231 assessed as reduction in fungal growth incubated for 48 hrs in presence of sorbitol by broth microdilution method; format: functional
# [2] = Toxicity in Swiss mouse assessed as relative spleen weight at 0.5 mg/kg, ip measured after 24 hrs (reference value: 4.02 +/- 0.59 g); format: organism-based; conditions: in vivo
# Candida albicans [3] = assay: Antibiofilm activity against Candida albicans ATCC 10231 assessed as reduction in mature biofilm at 125 ug/ml incubated for 48 hrs by crystal violet staining based spectrophotometric analysis relative to control; format: functional
# Candida albicans [4] = assay: Antifungal activity against Candida albicans isolate 5 assessed as reduction in fungal growth incubated for 48 hrs by broth microdilution method; format: functional
# [5] = Toxicity in Swiss mouse assessed as signs of toxicity at 0.5 to 10 mg/kg, ip measured upto 4 hrs; format: organism-based; conditions: in vivo, dose 0.5-10 mg/kg
# [6] = Toxicity in Swiss mouse assessed as effect on liver at 0.5 to 10 mg/kg, ip measured after 24 hrs by macroscopic analysis; format: organism-based; conditions: in vivo, dose 0.5-10 mg/kg
# [7] = Toxicity in Swiss mouse assessed as relative lung weight at 20 mg/kg, ip measured after 24 hrs (reference value: 6.35 +/- 0.68 g); format: organism-based; conditions: in vivo
# [8] = Toxicity in Swiss mouse assessed as body weight at 0.5 mg/kg, ip measured after 24 hrs (reference value: 36.25 +/- 0.31 g); format: organism-based; conditions: in vivo
# Pichia kudriavzevii [9] = assay: Fungicidal activity against Candida krusei ATCC 34135 assessed as fungal killing incubated for 48 hrs followed by plating on SD agar plate; format: functional; conditions: read-out: MFC99.9
# Candida albicans [10] = assay: Fungicidal activity against Candida albicans isolate 10 assessed as fungal killing incubated for 48 hrs followed by plating on SD agar plate; format: functional; conditions: read-out: MFC99.9
# Pichia kudriavzevii [11] = assay: Antifungal activity against Candida krusei ATCC 34135 assessed as reduction in fungal growth incubated for 48 hrs in presence of sorbitol by broth microdilution method; format: functional
# [12] = Toxicity in Swiss mouse assessed as effect on spleen at 0.5 to 10 mg/kg, ip measured after 24 hrs by macroscopic analysis; format: organism-based; conditions: in vivo, dose 0.5-10 mg/kg
# Candida albicans [13] = assay: Fungicidal activity against Candida albicans isolate 6 assessed as fungal killing incubated for 48 hrs followed by plating on SD agar plate; format: functional; conditions: read-out: MFC99.9
# [14] = Toxicity in Swiss mouse assessed as relative spleen weight at 10 mg/kg, ip measured after 24 hrs (reference value: 4.02 +/- 0.59 g); format: organism-based; conditions: in vivo
# Candida albicans [15] = assay: Antibiofilm activity against Candida albicans ATCC 10231 assessed as reduction in biofilm formation at 0.24 to 7.81 ug/ml by crystal violet staining based spectrophotometric analysis; format: functional, organism-based; conditions: dose 0.24-7.81 µg/ml
# [16] = Toxicity in Swiss mouse assessed as relative kidney weight at 20 mg/kg, ip measured after 24 hrs (reference value: 14.91 +/- 0.99 g); format: organism-based; conditions: in vivo
# [17] = Toxicity in Swiss mouse assessed as relative liver weight at 10 mg/kg, ip measured after 24 hrs (reference value: 49.42 +/- 7.17 g); format: organism-based; conditions: in vivo
# Candida albicans [18] = assay: Fungicidal activity against Candida albicans isolate 7 assessed as fungal killing incubated for 48 hrs followed by plating on SD agar plate; format: functional; conditions: read-out: MFC99.9
# [19] = Toxicity in Swiss mouse assessed as effect on kidney at 0.5 to 10 mg/kg, ip measured after 24 hrs by macroscopic analysis; format: organism-based; conditions: in vivo, dose 0.5-10 mg/kg
# Candida albicans [20] = assay: Fungicidal activity against Candida albicans ATCC 10231 assessed as reduction in fungal load at 15.6 ug/ml incubated for 4 hrs followed by inoculation on SD agar plate for 48 hrs by time-kill assay; format: functional; conditions: dose 15.6 µg/ml; time 52 hrs
# [21] = Toxicity in Swiss mouse infected with Candida albicans ATCC 10231 assessed as effect on heart at 10 mg/kg, ip administered at 2, 24 and 48 hrs post-infection and measured at 24 hrs after last dose by macroscopic analysis; format: organism-based; conditions: in vivo, 72 h
# [22] = Toxicity in Swiss mouse assessed as relative heart weight at 3 mg/kg, ip measured after 24 hrs (reference value: 4.75 +/- 0.60 g); format: organism-based; conditions: in vivo
# Pichia kudriavzevii [23] = assay: Antifungal activity against Candida krusei ATCC 34135 assessed as reduction in fungal growth incubated for 48 hrs in presence of ergosterol by broth microdilution method; format: functional
# Candida albicans [24] = assay: Fungicidal activity against Candida albicans ATCC 10231 assessed as reduction in fungal load at 7.8 ug/ml incubated for 4 hrs followed by inoculation on SD agar plate for 48 hrs by time-kill assay; format: functional; conditions: dose 7.8 µg/ml; time 52 hrs
# [25] = Toxicity in Swiss mouse assessed as relative liver weight at 0.5 mg/kg, ip measured after 24 hrs (reference value: 49.42 +/- 7.17 g); format: organism-based; conditions: in vivo
# [26] = Toxicity in Swiss mouse assessed as relative kidney weight at 0.5 mg/kg, ip measured after 24 hrs (reference value: 14.91 +/- 0.99 g); format: organism-based; conditions: in vivo
# [27] = Toxicity in Swiss mouse assessed as relative heart weight at 10 mg/kg, ip measured after 24 hrs (reference value: 4.75 +/- 0.60 g); format: organism-based; conditions: in vivo
# Candida albicans [28] = assay: Fungicidal activity against Candida albicans isolate 12 assessed as fungal killing incubated for 48 hrs followed by plating on SD agar plate; format: functional; conditions: read-out: MFC99.9
# Candida albicans [29] = assay: Fungicidal activity against Candida albicans isolate 8 assessed as fungal killing incubated for 48 hrs followed by plating on SD agar plate; format: functional; conditions: read-out: MFC99.9
# Candida albicans [30] = assay: Fungicidal activity against Candida albicans isolate 9 assessed as fungal killing incubated for 48 hrs followed by plating on SD agar plate; format: functional; conditions: read-out: MFC99.9
# [31] = Toxicity in Swiss mouse infected with Candida albicans ATCC 10231 assessed as effect on kidney at 10 mg/kg, ip administered at 2, 24 and 48 hrs post-infection and measured at 24 hrs after last dose by macroscopic analysis; format: organism-based; conditions: in vivo, 72 h
# Candida albicans [32] = assay: Fungicidal activity against Candida albicans ATCC 18804 assessed as fungal killing incubated for 48 hrs followed by plating on SD agar plate; format: functional; conditions: read-out: MFC99.9
# [33] = Toxicity in Swiss mouse infected with Candida albicans ATCC 10231 assessed as reduction in body weight at 10 mg/kg, ip administered at 2, 24 and 48 hrs post-infection and measured at 24 hrs after last dose; format: organism-based; conditions: in vivo, 72 h
# Candida albicans [34] = assay: Antifungal activity against Candida albicans isolate 12 assessed as reduction in fungal growth incubated for 48 hrs by broth microdilution method; format: functional
# Nakaseomyces glabratus = assay: Antifungal activity against Candida glabrata ATCC 2001 assessed as reduction in fungal growth incubated for 48 hrs by broth microdilution method; format: functional
# [35] = Toxicity in Swiss mouse infected with Candida albicans ATCC 10231 assessed as effect on heart weight at 10 mg/kg, ip administered at 2, 24 and 48 hrs post-infection and measured at 24 hrs after last dose; format: organism-based; conditions: in vivo, 72 h
# [36] = Toxicity in Swiss mouse assessed as relative kidney weight at 3 mg/kg, ip measured after 24 hrs (reference value: 14.91 +/- 0.99 g); format: organism-based; conditions: in vivo
# Candida albicans [37] = assay: Antifungal activity against Candida albicans isolate 13 assessed as reduction in fungal growth incubated for 48 hrs by broth microdilution method; format: functional
# Candida tropicalis = assay: Antifungal activity against Candida tropicalis ATCC 28707 assessed as reduction in fungal growth incubated for 48 hrs in presence of sorbitol by broth microdilution method; format: functional
smiles,measurement,setting,value
[Cl-].[N-]=[N+]=NCCCCCCCCCCCCOCCCc1ccc[n+](Cc2ccccc2)c1,MIC,Candida albicans [1],7.8 µg/mL
same,Activity,[2],3.85 g
same,inhibition at 125 µg/mL,Candida albicans [3],40%
same,MIC,Candida albicans [4],7.8 µg/mL
same,Activity,[5],Non-Toxic
same,Activity,[6],Non-Toxic
same,Activity,[7],5.38 g
same,Activity,[8],37.37 g
same,MFC,Pichia kudriavzevii [9],7.8 µg/mL
same,MFC,Candida albicans [10],31.2 µg/mL
same,MIC,Pichia kudriavzevii [11],3.9 µg/mL
same,Activity,[12],Non-Toxic
same,MFC,Candida albicans [13],31.2 µg/mL
same,Activity,[14],2.85 g
same,Activity,Candida albicans [15],Active
same,Activity,[16],15.79 g
same,Activity,[17],43.58 g
same,MFC,Candida albicans [18],3.9 µg/mL
same,Activity,[19],Non-Toxic
same,log(activity),Candida albicans [20],2
same,Activity,[21],Non-Toxic
same,Activity,[22],4.45 g
same,MIC,Pichia kudriavzevii [23],15.6 µg/mL
same,log(activity),Candida albicans [24],3
same,Activity,[25],43.25 g
same,Activity,[26],14.41 g
same,Activity,[27],4.95 g
same,MFC,Candida albicans [28],7.8 µg/mL
same,MFC,Candida albicans [29],7.8 µg/mL
same,MFC,Candida albicans [30],31.2 µg/mL
same,Activity,[31],Non-Toxic
same,MFC,Candida albicans [32],31.2 µg/mL
same,Activity,[33],Toxic
same,MIC,Candida albicans [34],7.8 µg/mL
same,MIC,Nakaseomyces glabratus,7.8 µg/mL
same,Activity,[35],Non-Toxic
same,Activity,[36],14.73 g
same,MIC,Candida albicans [37],7.8 µg/mL
same,MIC,Candida tropicalis,7.8 µg/mL
